In patent publication US20240131028A1, “CHEMOVACCINATION AGAINST PLASMODIUM INFECTION WITH SELECTIVE PLASMEPSIN X INHIBITORS” (Merck Sharp & Dohme LLC, priority 2021, published 2024):
Entries after “also recorded” stand apart in the source; their conditions may differ. Where two headings read alike, the source gives them in different places.

Experiments:
[1] = molecular target: T1, PfPMIX (recombinant plasmepsin IX) (Plasmodium falciparum, UniProt Q8ILG2); assay: FRET based assay for plasmepsin IX cleavage of RON3 peptide substrate; type: biochemical; conditions: AVG, N=2, pH 5.5
T1 sequence (Q8ILG2 1-627): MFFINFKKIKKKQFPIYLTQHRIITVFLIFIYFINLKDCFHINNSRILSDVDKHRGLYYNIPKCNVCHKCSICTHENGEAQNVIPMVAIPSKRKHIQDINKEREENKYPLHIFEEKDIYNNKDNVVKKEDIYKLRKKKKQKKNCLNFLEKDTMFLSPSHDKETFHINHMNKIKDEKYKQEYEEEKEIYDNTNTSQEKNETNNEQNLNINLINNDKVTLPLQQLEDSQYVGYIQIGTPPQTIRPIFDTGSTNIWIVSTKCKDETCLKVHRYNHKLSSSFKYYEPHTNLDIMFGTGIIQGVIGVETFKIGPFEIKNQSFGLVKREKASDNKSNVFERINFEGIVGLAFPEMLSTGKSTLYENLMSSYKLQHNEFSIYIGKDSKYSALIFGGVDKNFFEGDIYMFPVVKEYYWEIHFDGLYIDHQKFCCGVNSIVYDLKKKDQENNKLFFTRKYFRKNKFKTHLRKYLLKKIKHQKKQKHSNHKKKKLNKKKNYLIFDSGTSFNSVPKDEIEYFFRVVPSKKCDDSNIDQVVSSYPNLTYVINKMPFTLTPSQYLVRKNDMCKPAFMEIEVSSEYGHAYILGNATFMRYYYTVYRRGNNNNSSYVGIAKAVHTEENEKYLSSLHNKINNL
Protocol: (§1) For cleavage assays, 10-point dilution series of the compounds (Compound EC50 determined by LDH assay) were prepared in 1536 well black low volume assay plates (Corning #3728) using an Acoustic Dispenser Echo555 (Labcyte). Appropriate volumes of 10 mM compound stocks were transferred into the assay plates starting at a top dose of 0.9 μM for PfPMX and 90 μM for PfPMIX in a 1:3 fold dilution series with 1% DMSO final concentration. IC50 values were analysed in Graphpad Prism software using a nonlinear regression four-parameter fit analysis. The equation used was sigmoidal dose response (variable slope), Y=bottom+[…].
(§2) All compound potency assays were conducted in 5 μl total volume. […] Samples were excited at 340 nm and fluorescence emission measured at 490 nm using PHERAstar FSX plate reader (BMG). […]
(§3) For cleavage assays, 10-point dilution series of the compounds, recombinant PMIX or PMX, and FRET peptide substrates were prepared in 1536 well plates. Samples were excited at 340 nm and fluorescence emission measured at 492 nm using an Envision fluorescence plate reader (Perkin-Elmer).
(§4) IC50 values were calculated by Dotmatics 5.3 and Spotfire 7.11.1 software using a nonlinear regression four-parameter fit analysis. […]

[2] = molecular target: PfPMX (recombinant plasmepsin X) (Plasmodium falciparum, UniProt Q8IAS0); assay: FRET based assay for plasmepsin X cleavage of Rh2 peptide substrate; type: biochemical; conditions: AVG, N=2, pH 5.5
Protocol: as §1, §2, §3, §4

[3] = tested on: Plasmodium berghei sporozoites (PbmCherryLuci); assay: Chemovaccination of mice: sporozoite liver infection, oral treatment, mosquito bite challenge; type: in vivo, Plasmodium berghei in C57BL/6 mice
Protocol: The indicated number of Plasmodium berghei sporozoites expressing mCherry and luciferase reporters (PbmCherryLuci) were inoculated intravenously, and compounds were administered to mice by oral gavage 36 and 48 hours after injection during liver infection. Plasmodium berghei liver infection levels and egress of parasites from the liver were measured by bioluminescence signal from the parasites using the luciferase reporter and an In Vivo Imaging System (IVIS, Perkin Elmer) at the peak of liver infection (52 hours post infection, hpi), during liver egress (55 hpi) as well as during the first round of blood infection (65 hpi). Initiation of blood infection was also measured by flow cytometry at 65 hpi using the mCherry reporter to determine the parasitemia of this first round of blood infection. These analyses allowed quantification of the efficacy of drug killing of parasites in the liver (52 hpi), preventing their egress from the liver (55 hpi) or preventing their successful infection of the blood (65 hpi). Mice were monitored by giemsa stained thin blood smears for the presence of parasites in the blood for 30 days post infection. If no blood infection was seen during the subsequent 30 days, the mice were declared cured of malaria infection thus indicating the chemoprophylactic activity of these compounds.
The chemoprophylactic activity of administered compounds is not to kill liver Plasmodium berghei parasites nor to prevent their egress from the liver, but rather that liver-derived merozoites were unable to initiate a blood infection in these mice. The parasites are thus attenuated by the administered compounds. Such parasite attenuation by genetic means is a powerful vaccination strategy, and as such cure of liver parasites by the compounds could simultaneously be considered as chemoprophylaxis as well as a chemovaccination strategy. Mice previously cured of liver infection with the administered compounds (Chemovaccinated) were challenged with bites from 10 PbmCherryLuci infected mosquitoes at the indicated times after cure of liver infection with the administered compounds to determine the level of immunity engendered by this chemovaccination approach.
C57BL/6 mice were administered Example 2, as described in the general procedure. Thirty nine mice were infected with 40,000 sporozoites. Twenty-one mice were untreated. Six C57BL/6 mice were administered 2×100 mg/kg of Example 2. Six C57BL/6 mice were administered 2×200 mg/kg. Six C57BL/6 mice were administered 2×500 mg/kg. Example 2 dosed at 2×100 mg/kg cured four of six mice of their infection, as did mice dosed with 2×200 mg/kg of Example 2. […] These infections and treatments can be considered immunizations or chemovaccinations, since the parasite is attenuated by Example 2 and is unable to initiate the blood infection.
Additionally, the eight mice previously chemovaccinated with 2×100 mg/kg and 2×200 mg/kg of Example 2 were challenged three months later with bites from 10 mosquitoes infected with PbmCherryLuci sporozoites.

[4] = tested on: ring stage parasites (Pf); assay: Parasite lactate dehydrogenase (LDH) growth assay (Parasite Assay, PfLDH Assay); type: cell-based, P. falciparum; conditions: Plasmodium falciparum
[5] = eight mice chemovaccinated once with 2×100 or 2×200 mg/kg, challenged three months later, bites from 10 infected mosquitoes

Sequence of PfPMX (recombinant plasmepsin X) (Q8IAS0 222-573): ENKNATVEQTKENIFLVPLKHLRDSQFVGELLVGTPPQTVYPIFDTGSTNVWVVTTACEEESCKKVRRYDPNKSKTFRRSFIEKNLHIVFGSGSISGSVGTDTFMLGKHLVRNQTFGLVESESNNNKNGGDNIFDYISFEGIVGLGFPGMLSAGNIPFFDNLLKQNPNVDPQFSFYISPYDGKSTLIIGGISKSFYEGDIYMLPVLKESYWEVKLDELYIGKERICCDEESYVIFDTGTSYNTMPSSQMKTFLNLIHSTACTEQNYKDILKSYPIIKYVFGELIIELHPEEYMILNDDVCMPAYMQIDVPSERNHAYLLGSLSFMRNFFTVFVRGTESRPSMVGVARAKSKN

CCC1(CC)CC(=O)N([C@H](c2cccnc2)[C@H]2C[C@@H]2C(=O)N[C@H]2CC(C)(C)Oc3ccccc32)C(=N)N1 [Example 2, (1S,2S)-2-((S)-(4,4-diethyl-2-imino-6-oxotetrahydropyrimidin-1(2H)-yl)(pyridin-3-yl)methyl)-N—((S)-2,2-dimethylchroman-4-yl)cyclopropanecarboxamide]
Ki [1]: 5950 pM
Ki [2]: 26 pM
mice cured of their infection ([3]; 2×100 mg/kg oral gavage 36 and 48 h after 40,000 sporozoites i.v., 30 days monitoring): four of six
mice cured of their infection ([3]; 2×200 mg/kg oral gavage 36 and 48 h after 40,000 sporozoites i.v., 30 days monitoring): four of six
mice cured of their infection (chemoprophylaxis) ([3]; 2×500 mg/kg oral gavage 36 and 48 h after 40,000 sporozoites i.v., 30 days monitoring, FIG. 1): cured all mice of their infection; also recorded: never got malaria
protection from infection upon mosquito bite challenge after two immunizations ([3]; 2×500 mg/kg twice, challenged 3 months later, bites from 10 infected mosquitoes, FIG. 2): completely protected from infection
protection after two immunizations ([3]; 2×500 mg/kg twice, mosquito bite challenge 3 months later, FIG. 2): 100%
development of malaria disease after challenge, one immunization [3, 5]: all mice ultimately developed malaria disease
infection upon mosquito bite challenge after one immunization [3, 5]: showed a reduction in infection upon challenge
cure of second infection (boost immunization) ([3]; six mice, six weeks later 20,000 sporozoites, 2×500 mg/kg): cured them of this second infection
EC50 ([4]; 72 h, Table 3, 72 hours growth, LDH readout, read-out: EC50): 900 pM
EC50 ([4]; Table 6, AVG, N=3, read-out: PfLDH Assay (EC50)): 860 pM
